ChEMBL document CHEMBL4177731, “Synthesis, in vitro α-glucosidase inhibitory activity and docking studies of novel chromone-isatin derivatives” (Bioorg Med Chem Lett, 2018)

Test: Inhibition of Saccharomyces cerevisiae alpha-glucosidase pre-incubated for 15 mins before p-nitrophenyl alpha-D-glucopyranoside substrate addition and measured after 30 mins by spectrophotometry

Structure (SMILES)	IC50
O=C1/C(=N\N=C\c2coc3ccccc3c2=O)c2ccccc2N1Cc1cccc(F)c1	16 µM
O=C1/C(=N\N=C\c2coc3ccccc3c2=O)c2ccccc2N1Cc1ccccc1Cl	13.5 µM
O=C1/C(=N\N=C\c2coc3cc(O)ccc3c2=O)c2ccccc2N1Cc1ccccc1Cl	5.51 µM
O=C1Nc2ccccc2/C1=N/N=C/c1coc2ccccc2c1=O	16.2 µM
CN1C(=O)/C(=N\N=C\c2coc3ccccc3c2=O)c2ccccc21	11.8 µM
O=C1/C(=N\N=C\c2coc3ccccc3c2=O)c2ccccc2N1Cc1ccc(F)cc1	9.8 µM
O=C1/C(=N\N=C\c2coc3ccccc3c2=O)c2ccccc2N1Cc1ccccc1F	14 µM
O=C1/C(=N\N=C\c2coc3ccccc3c2=O)c2ccccc2N1Cc1ccc(Cl)cc1	16.6 µM
O=C1/C(=N\N=C\c2coc3ccccc3c2=O)c2ccccc2N1Cc1ccc(Br)cc1	8.17 µM

The next molecules have a lower IC50 than those just listed; values first:

IC50	Structure (SMILES)
3.82 µM	O=C1/C(=N\N=C\c2coc3cc(O)ccc3c2=O)c2ccccc2N1Cc1ccc(F)cc1
3.18 µM	O=C1/C(=N\N=C\c2coc3cc(O)ccc3c2=O)c2ccccc2N1Cc1ccc(Br)cc1
4.25 µM	O=C1/C(=N\N=C\c2coc3cc(O)ccc3c2=O)c2ccccc2N1Cc1ccc(Cl)cc1Cl
4.73 µM	O=C1/C(=N\N=C\c2coc3cc(O)ccc3c2=O)c2ccccc2N1Cc1ccccc1Br
4.57 µM	O=C1/C(=N\N=C\c2coc3cc(O)ccc3c2=O)c2ccccc2N1Cc1ccccc1F
3.9 µM	O=C1/C(=N\N=C\c2coc3cc(O)ccc3c2=O)c2ccccc2N1Cc1ccc(Cl)cc1
4.17 µM	O=C1/C(=N\N=C\c2coc3cc(O)ccc3c2=O)c2ccccc2N1Cc1cccc(F)c1
